Source: patent publication US12138254B2, “Chronic nightly dosing of lasmiditan for migraine prevention” (Eli Lilly and Company, priority 2018, dated 2024)
Read-outs that look alike come from different tables or passages of the source.

How the values were obtained:
[1] = Unbound plasma and brain levels of lasmiditan in rats from dural PPE studies; assay type: in vivo, Sprague-Dawley rats; conditions: rat; for concentration at 1 h / concentration at 24 h: male, Sprague-Dawley; for concentration at 1 h: 1 hr post-dose; for concentration at 24 h: 24 hrs post-dose
Procedure: Lasmiditan-hemisuccinate is dissolved in sterile water. All doses of lasmiditan are reported as free base equivalent doses, accounting for the weight of the salt. Envigo Sprague-Dawley, Sprague-Dawley male rats (250-350 grams, n=4/group) are fasted overnight prior to dosing. The animals are orally gavaged (2 mL/kg dose volume) with test compound or vehicle one hour prior to stimulation time and returned to their cages with only water available. Approximately 50 minutes post-dosing, the rats are anesthetized with Nembutal (65 mg/kg, ip.) and implanted with stainless steel stimulating electrodes (Rhodes Medical Systems, Inc.) to a depth of 9.2 mm. from the dura. The femoral vein is exposed and fluorescein isothiocyanate-labeled bovine serum albumin (FITC-BSA) (20 mg/kg, iv.), is injected into the femoral vein 2 minutes prior to stimulation. The FITC-BSA functions as a marker for protein extravasation. The left trigeminal ganglion is stimulated for 5 minutes at a current intensity of 1.0 mA (5 Hz, 5 msec pulse duration) with a Model S48 Grass Instrument Stimulator with PSIU6 photoelectric isolation unit (Grass-Telefactor). Five minutes following stimulation, a blood sample is collected by cardiac puncture and the rats are sacrificed by exsanguination with 40 ml of saline. One milliliter of blood is collected and placed in a 1.5 ml EDTA coated tube (Fisher Cat. #540734) on ice. Plasma is separated via centrifugation at 10,000 rpm (941 g) for thirty minutes at 4° C. The top of the skull is removed to collect the brain and dural membranes. The brain and plasma samples are frozen at −80° C. until thawed for compound quantification. The membrane samples are removed from both hemispheres, rinsed with water, and spread flat on microscope slides. The slides are dried for 15 minutes on a slide warmer, then the tissues are cover-slipped with a 70% glycerol/water solution. A fluorescence microscope (Zeiss) equipped with a grating monochromator and a spectrophotometer is used to quantify the amount of FITC-BSA dye in each dural sample. The extravasation induced by electrical stimulation of the trigeminal ganglion is an ipsilateral effect (i.e. occurs only on the side of the dura in which the trigeminal ganglion was stimulated). This allows the other (unstimulated) half of the dura to be used as the control. The ratio of extravasation in the dura from the stimulated side versus the unstimulated side is calculated and reported as the extravasation ratio for each animal. The mean extravasation ratio and standard error of the mean (SEM) are calculated for each treatment group. Controls yield a ratio of approximately 1.8. In contrast, a compound which effectively prevents the extravasation in the dura from the stimulated side would have a ratio of approximately 1. The resulting data are analyzed with a one-way ANOVA followed by Dunnett's post hoc to determine statistical significance (p<0.05). Levels of compound in the plasma and brain samples for each animal are analyzed according to methods known to the skilled artisan. Evaluation of Compound Potency 24 or 48 Hours Following Oral Administration Envigo Sprague-Dawley, Sprague-Dawley male rats (250-350 grams, n=4/group) are fasted overnight prior to dosing for the duration p.o. study. The animals are orally gavaged with test compound or vehicle and returned to their cages with only water available; with food returned 1 hour later. Either 24 or 48 post-dose, the animals are anesthetized with Nembutal (65 mg/kg, ip.) and placed in a stereotaxic frame (David Kopf Instruments). The remainder of the protocol is identical to the method immediately above for Evaluation of Compound Potency 1 Hour Following Oral Administration. […] However, the unbound plasma and brain concentrations measured 24 hours following the administration of the 10 mg/kg dose, are not different from the exposures associated with the non-efficacious 0.1 mg/kg dose at one hour. […]

[2] = Fraction unbound in plasma and brain (FUplasma, FUbrain)
[3] = tested on: patients with migraine; assay: Phase 3 studies SAMURAI and SPARTAN, lasmiditan vs placebo for acute treatment of migraine; assay type: in vivo, human
Excerpt: Prior clinical development studies of lasmiditan have employed acute on-demand treatment regimens to relieve migraine pain and symptoms and treat migraine. […] From this analysis, the authors concluded the primary and key secondary endpoints were met and safety outcomes were consistent across the two Phase 3 studies. Thus, acute on-demand use of lasmiditan provides effective treatment for a substantial population of migraine patients, however some patients may continue to have attacks and improved methods of treating and/or preventing these attacks represent an important therapeutic goal.
The placebo-controlled Phase 3 studies SAMURAI (NCT02439320) and SPARTAN (NCT02605174) evaluated lasmiditan 50 mg [SPARTAN only], 100 mg and 200 mg. […] GLADIATOR (NCT02565186) is a prospective randomized open-label Phase 3 study to evaluate long-term intermittent use of lasmiditan (100 mg or 200 mg) for acute treatment of migraine. An interim analysis of the effects of lasmiditan on migraine disability assessed with the MIDAS scale in GLADIATOR is described below, and has provided surprising and unexpected evidence of persistent beneficial effects in migraine patients.

[4] = brain, 10 mg/kg po, read-out: Unbound Brain Cone (mean ± SD; n = 4)
[5] = plasma, 10 mg/kg po, read-out: Unbound Plasma Cone (mean ± SD; n = 4)
[6] = 10 mg/kg po, 48 hrs post-dose, BQL = below quantitation level

CN1CCC(C(=O)c2cccc(NC(=O)c3c(F)cc(F)cc3F)n2)CC1 [Lasmiditan, 2,4,6-trifluoro-N-[6-(1-methyl-piperidin-4-ylcarbonyl)-pyridin-2-yl]-benzamide]
concentration at 1 h ([1]; brain, 0.1 mg/kg po, read-out: Unbound Brain Cone (mean ± SD; n = 4)): 2 ± 0.1 nM | concentration at 1 h ([1]; brain, 1 mg/kg po, read-out: Unbound Brain Cone (mean ± SD; n = 4)): 16.6 ± 3.6 nM | concentration at 1 h [1, 4]: 242 ± 95 nM | concentration at 24 h [1, 4]: 2.1 ± 0.9 nM | concentration at 1 h ([1]; plasma, 0.1 mg/kg po, read-out: Unbound Plasma Cone (mean ± SD; n = 4)): 6 ± 1.9 nM | concentration at 1 h ([1]; plasma, 1 mg/kg po, read-out: Unbound Plasma Cone (mean ± SD; n = 4)): 67 ± 19.8 nM | concentration at 1 h [1, 5]: 767 ± 254 nM | concentration at 24 h [1, 5]: 6.2 ± 2.5 nM | Unbound Brain Cone (mean ± SD; n = 4) [1, 6]: BQL | Unbound Plasma Cone (mean ± SD; n = 4) [1, 6]: BQL | FUbrain ([2]; brain): FUbrain = 0.117, | FUplasma ([2]; plasma): FUplasma = 0.459, | recurrence rates of migraine ([3]; 50-mg to 200-mg dose range, 2-hour to 24-hour time frame after dosing): similarly low | efficacy on 2-hour pain freedom, dose relation ([3]; completed single-attack Phase 3 studies): dose related | TEAEs, 200 mg vs 100 mg ([3]; studies of lasmiditan for acute treatment of migraine): numerically more TEAEs
